Key:
Assay type in all cases: functional
[1] = test system: Staphylococcus epidermidis; test: Antibacterial activity against Staphylococcus epidermidis assessed as growth inhibition by microtitration method
[2] = test system: Escherichia coli; test: Antibacterial activity against Escherichia coli assessed as growth inhibition by microtitration method
[3] = test system: Klebsiella aerogenes; test: Antibacterial activity against Enterobacter aerogenes assessed as growth inhibition by microtitration method
[4] = test system: Pseudomonas aeruginosa; test: Antibacterial activity against Pseudomonas aeruginosa assessed as growth inhibition by microtitration method
[5] = test system: Staphylococcus aureus; test: Antibacterial activity against Staphylococcus aureus assessed as growth inhibition by microtitration method
[6] = test system: Bacillus subtilis; test: Antibacterial activity against Bacillus subtilis assessed as growth inhibition by microtitration method

**Q.** Which results are given for C[C@@H](NC(=O)c1cnc2cc(C(F)(F)F)ccc2c1O)C(=O)O?
**A.** MIC [1]: 12.5 µg/mL; MIC [2]: 25 µg/mL; MIC [3]: 25 µg/mL; MIC [4]: 6.12 µg/mL; MIC [5]: 25 µg/mL; MIC [6]: 50 µg/mL

**Q.** Which results are given for CCn1cc(C(=O)N[C@@H](CC(C)C)C(=O)O)c(=O)c2ccc(C(F)(F)F)cc21?
**A.** MIC [1]: 6.25 µg/mL; MIC [2]: 12.5 µg/mL; MIC [3]: 12.5 µg/mL; MIC [4]: 6.25 µg/mL; MIC [5]: 25 µg/mL; MIC [6]: 25 µg/mL

**Q.** For CCn1cc(C(=O)N[C@H](C)C(=O)O)c(=O)c2ccc(C(F)(F)F)cc21, which MIC [1] is on record?
**A.** 25 µg/mL

**Q.** What about the MIC [2] of the same molecule?
**A.** 12.5 µg/mL

**Q.** What about the MIC [3] of the same molecule?
**A.** 25 µg/mL

**Q.** And the MIC [4]?
**A.** 12.5 µg/mL

**Q.** What about the MIC [5] of the same molecule?
**A.** 25 µg/mL

**Q.** And the MIC [6]?
**A.** 50 µg/mL

**Q.** What does the source list for CCOC(=O)[C@@H](Cc1ccccc1)NC(=O)c1cn(CC)c2cc(C(F)(F)F)ccc2c1=O?
**A.** MIC [1]: 25 µg/mL; MIC [2]: 25 µg/mL; MIC [3]: 25 µg/mL; MIC [4]: 25 µg/mL; MIC [5]: 25 µg/mL; MIC [6]: 25 µg/mL

**Q.** With CCn1cc(C(=O)N[C@@H](C)C(=O)O)c(=O)c2ccc(C(F)(F)F)cc21 as the molecule, how does the MIC [1] read?
**A.** 6.25 µg/mL

**Q.** And the MIC [2]?
**A.** 12.5 µg/mL

**Q.** And the MIC [3]?
**A.** 12.5 µg/mL

**Q.** And the MIC [4]?
**A.** 25 µg/mL

**Q.** And the MIC [5]?
**A.** 12.5 µg/mL

**Q.** And the MIC [6]?
**A.** 50 µg/mL

**Q.** Which MIC [1] does the source give for CCOC(=O)[C@@H](NC(=O)c1cn(CC)c2cc(C(F)(F)F)ccc2c1=O)[C@H](C)CC here?
**A.** 25 µg/mL

**Q.** What about the MIC [2] of the same molecule?
**A.** 25 µg/mL

**Q.** And the MIC [3]?
**A.** 12.5 µg/mL

**Q.** And the MIC [4]?
**A.** 25 µg/mL

**Q.** And the MIC [5]?
**A.** 25 µg/mL

**Q.** What about the MIC [6] of the same molecule?
**A.** 50 µg/mL

**Q.** How did the MIC [1] turn out when CCOC(=O)[C@H](Cc1ccccc1)NC(=O)c1cn(CC)c2cc(C(F)(F)F)ccc2c1=O was run?
**A.** 6.25 µg/mL

**Q.** And the MIC [2]?
**A.** 12.5 µg/mL

**Q.** And the MIC [3]?
**A.** 6.25 µg/mL

**Q.** What about the MIC [4] of the same molecule?
**A.** 6.25 µg/mL

**Q.** And the MIC [5]?
**A.** 25 µg/mL

**Q.** And the MIC [6]?
**A.** 50 µg/mL

**Q.** Which MIC [1] does the source give for CCn1cc(C(=O)N[C@H](Cc2ccccc2)C(=O)O)c(=O)c2ccc(C(F)(F)F)cc21 here?
**A.** 25 µg/mL

**Q.** And the MIC [2]?
**A.** 25 µg/mL

**Q.** What about the MIC [3] of the same molecule?
**A.** 12.5 µg/mL

**Q.** What about the MIC [4] of the same molecule?
**A.** 25 µg/mL

**Q.** What about the MIC [5] of the same molecule?
**A.** 25 µg/mL

**Q.** What about the MIC [6] of the same molecule?
**A.** 25 µg/mL

**Q.** CCn1cc(C(=O)N[C@H](C(=O)O)C(C)C)c(=O)c2ccc(C(F)(F)F)cc21 was tested. Which MIC [1] did it give?
**A.** 6.25 µg/mL

**Q.** And the MIC [2]?
**A.** 12.5 µg/mL

**Q.** What about the MIC [3] of the same molecule?
**A.** 3.12 µg/mL

**Q.** And the MIC [4]?
**A.** 6.25 µg/mL

**Q.** And the MIC [5]?
**A.** 12.5 µg/mL

**Q.** And the MIC [6]?
**A.** 50 µg/mL

**Q.** What does the source list for CCOC(=O)[C@@H]1CCCN1C(=O)c1cn(CC)c2cc(C(F)(F)F)ccc2c1=O?
**A.** MIC [1]: 25 µg/mL; MIC [2]: 25 µg/mL; MIC [3]: 12.5 µg/mL; MIC [4]: 6.25 µg/mL; MIC [5]: 25 µg/mL; MIC [6]: 50 µg/mL

**Q.** For O=C(N[C@H](Cc1ccccc1)C(=O)O)c1cnc2cc(C(F)(F)F)ccc2c1O, which MIC [1] is on record?
**A.** 25 µg/mL

**Q.** And the MIC [2]?
**A.** 25 µg/mL

**Q.** And the MIC [3]?
**A.** 12.5 µg/mL

**Q.** What about the MIC [4] of the same molecule?
**A.** 6.12 µg/mL

**Q.** What about the MIC [5] of the same molecule?
**A.** 25 µg/mL

**Q.** What about the MIC [6] of the same molecule?
**A.** 50 µg/mL

**Q.** Which results are given for CCOC(=O)[C@@H](NC(=O)c1cn(CC)c2cc(C(F)(F)F)ccc2c1=O)C(C)C?
**A.** MIC [1]: 25 µg/mL; MIC [2]: 25 µg/mL; MIC [3]: 12.5 µg/mL; MIC [4]: 25 µg/mL; MIC [5]: 25 µg/mL; MIC [6]: 25 µg/mL

**Q.** What does the source list for CCn1cc(C(=O)N2CCC[C@H]2C(=O)O)c(=O)c2ccc(C(F)(F)F)cc21?
**A.** MIC [1]: 6.25 µg/mL; MIC [2]: 12.5 µg/mL; MIC [3]: 6.25 µg/mL; MIC [4]: 6.25 µg/mL; MIC [5]: 25 µg/mL; MIC [6]: 25 µg/mL

**Q.** For CCn1cc(C(=O)N[C@@H](Cc2ccccc2)C(=O)O)c(=O)c2ccc(C(F)(F)F)cc21, which MIC [1] is on record?
**A.** 3.12 µg/mL

**Q.** And the MIC [2]?
**A.** 12.5 µg/mL

**Q.** And the MIC [3]?
**A.** 6.25 µg/mL

**Q.** What about the MIC [4] of the same molecule?
**A.** 3.12 µg/mL

**Q.** What about the MIC [5] of the same molecule?
**A.** 12.5 µg/mL

**Q.** What about the MIC [6] of the same molecule?
**A.** 50 µg/mL

**Q.** Which MIC [1] does the source give for CC[C@@H](C)[C@H](NC(=O)c1cnc2cc(C(F)(F)F)ccc2c1O)C(=O)O here?
**A.** 25 µg/mL

**Q.** And the MIC [2]?
**A.** 25 µg/mL

**Q.** What about the MIC [3] of the same molecule?
**A.** 25 µg/mL

**Q.** And the MIC [4]?
**A.** 25 µg/mL

**Q.** And the MIC [5]?
**A.** 25 µg/mL

**Q.** What about the MIC [6] of the same molecule?
**A.** 50 µg/mL

**Q.** What does the source list for C[C@H](NC(=O)c1cnc2cc(C(F)(F)F)ccc2c1O)C(=O)O?
**A.** MIC [1]: 25 µg/mL; MIC [2]: 25 µg/mL; MIC [3]: 50 µg/mL; MIC [4]: 25 µg/mL; MIC [5]: 25 µg/mL; MIC [6]: 50 µg/mL

**Q.** Which MIC [1] does the source give for O=C(O)c1cn(C2CC2)c2cc(N3CCNCC3)c(F)cc2c1=O [CIPROFLOXACIN] here?
**A.** 0.012 µg/mL

**Q.** And the MIC [3]?
**A.** 0.012 µg/mL

**Q.** And the MIC [4]?
**A.** 0.012 µg/mL

**Q.** And the MIC [5]?
**A.** 0.048 µg/mL

**Q.** What about the MIC [6] of the same molecule?
**A.** 0.048 µg/mL

**Q.** For CC[C@@H](C)[C@H](NC(=O)c1cn(CC)c2cc(C(F)(F)F)ccc2c1=O)C(=O)O, which MIC [1] is on record?
**A.** 6.25 µg/mL

**Q.** And the MIC [2]?
**A.** 12.5 µg/mL

**Q.** What about the MIC [3] of the same molecule?
**A.** 12.5 µg/mL

**Q.** And the MIC [4]?
**A.** 6.25 µg/mL

**Q.** And the MIC [5]?
**A.** 25 µg/mL

**Q.** And the MIC [6]?
**A.** 25 µg/mL

**Q.** Which results are given for O=C(O)[C@@H]1CCCN1C(=O)c1cnc2cc(C(F)(F)F)ccc2c1O?
**A.** MIC [1]: 50 µg/mL; MIC [2]: 25 µg/mL; MIC [3]: 25 µg/mL; MIC [4]: 25 µg/mL; MIC [5]: 25 µg/mL; MIC [6]: 50 µg/mL

**Q.** For CCOC(=O)[C@H](C)NC(=O)c1cn(CC)c2cc(C(F)(F)F)ccc2c1=O, which MIC [1] is on record?
**A.** 6.25 µg/mL

**Q.** And the MIC [2]?
**A.** 25 µg/mL

**Q.** And the MIC [3]?
**A.** 12.5 µg/mL

**Q.** What about the MIC [4] of the same molecule?
**A.** 25 µg/mL

**Q.** What about the MIC [5] of the same molecule?
**A.** 50 µg/mL

**Q.** And the MIC [6]?
**A.** 25 µg/mL

**Q.** Which MIC [1] does the source give for CC(C)[C@H](NC(=O)c1cnc2cc(C(F)(F)F)ccc2c1O)C(=O)O here?
**A.** 25 µg/mL

**Q.** What about the MIC [2] of the same molecule?
**A.** 25 µg/mL

**Q.** What about the MIC [3] of the same molecule?
**A.** 25 µg/mL

**Q.** And the MIC [4]?
**A.** 25 µg/mL

**Q.** And the MIC [5]?
**A.** 25 µg/mL

**Q.** And the MIC [6]?
**A.** 50 µg/mL

**Q.** Which results are given for CC(C)C[C@H](NC(=O)c1cnc2cc(C(F)(F)F)ccc2c1O)C(=O)O?
**A.** MIC [1]: 25 µg/mL; MIC [2]: 25 µg/mL; MIC [3]: 25 µg/mL; MIC [4]: 25 µg/mL; MIC [5]: 25 µg/mL; MIC [6]: 50 µg/mL

**Q.** How did the MIC [1] turn out when O=C(N[C@@H](Cc1ccccc1)C(=O)O)c1cnc2cc(C(F)(F)F)ccc2c1O was run?
**A.** 25 µg/mL

**Q.** What about the MIC [2] of the same molecule?
**A.** 25 µg/mL

**Q.** What about the MIC [3] of the same molecule?
**A.** 25 µg/mL

**Q.** And the MIC [4]?
**A.** 25 µg/mL

**Q.** What about the MIC [5] of the same molecule?
**A.** 12.5 µg/mL

**Q.** And the MIC [6]?
**A.** 50 µg/mL

**Q.** How did the MIC [1] turn out when CCOC(=O)[C@H](CC(C)C)NC(=O)c1cn(CC)c2cc(C(F)(F)F)ccc2c1=O was run?
**A.** 25 µg/mL

**Q.** And the MIC [2]?
**A.** 25 µg/mL

**Q.** And the MIC [3]?
**A.** 12.5 µg/mL

**Q.** And the MIC [4]?
**A.** 6.25 µg/mL

**Q.** And the MIC [5]?
**A.** 25 µg/mL

**Q.** And the MIC [6]?
**A.** 50 µg/mL

**Q.** With CCOC(=O)[C@@H](C)NC(=O)c1cn(CC)c2cc(C(F)(F)F)ccc2c1=O as the molecule, how does the MIC [1] read?
**A.** 25 µg/mL

**Q.** What about the MIC [2] of the same molecule?
**A.** 25 µg/mL

**Q.** And the MIC [3]?
**A.** 12.5 µg/mL

**Q.** What about the MIC [4] of the same molecule?
**A.** 6.12 µg/mL

**Q.** And the MIC [5]?
**A.** 25 µg/mL

**Q.** What about the MIC [6] of the same molecule?
**A.** 25 µg/mL
